The text below walks through data of patent publication US20250123269A1 (priority 2023, published 2025).

Where a name gives a salt, the structure may show the parent alone. Peptide text beside a SMILES is read from it. * marks the point of attachment. Decanoyl = CCCCCCCCCC(=O)*; CH2Cl = ClC*

Series [1] concerns WT SARS-COV-2 (USA-WA1/2020). It counts as cell-based.
The subject of another series is 229E-CoV. Kind of series: organism not typed. It counts as cell-based. The conditions noted are these: for IC50: 48 h.
The subject of another series is SARS-COV-2 omicron JN.1. Kind of series: microbe, parasite or virus in culture. It counts as cell-based. To be noted: Severe acute respiratory syndrome coronavirus 2, 48 h; for inhibition at 36 µM: read-out: replication inhibition.
Another series relates to SARS-COV-2. The conditions noted are these: cited from earlier work.
Another series relates to SARS-COV-2 (WA1/2020). It counts as cell-based.
For another series, the system named is MERS-COV. Type of series: cell-based.
In series [2] the target is main protease of SARS-COV-2 (Severe acute respiratory syndrome coronavirus 2, UniProt P0DTD1). The conditions noted are these: cited from earlier work.

In the case of `Cc1c(O)cccc1C(=O)N[C@@H](CSc1ccccc1)[C@H](O)CN1C[C@H]2CCCC[C@H]2C[C@H]1C(=O)NC(C)(C)C` [nelfinavir], the “concentration with increased toxicity” value in the series with ACE2plusC3 cells (human) is at least 25 µM. Further, in series [1], the “dose-dependent inhibition of infection” value is reported as “dose-dependent inhibition of infection”; the “inhibition of SARS-COV-2 infection (dose-response curve)” value (“inhibition of SARS-COV-2 infection” for short) is “potent and dose-dependent inhibition of infection”; the inhibition of infection entry is listed as “did not completely inhibit infection”.
As for `O=c1nc(NO)ccn1[C@@H]1O[C@H](CO)[C@@H](O)[C@H]1O` [EIDD-1931], in series [1], the “dose-dependent inhibition of infection” value was “dose-dependent inhibition of infection”, the “inhibition of SARS-COV-2 infection” value is reported as “strong inhibition efficacy”, the inhibition of infection entry is “complete inhibition” and the reduction of infection result is recorded as “at least 50%”.
In general, IC50 refers to the midpoint of a concentration-inhibition curve. Low values mean greater potency, high ones weaker potency. Consider `N#C[C@H](C[C@@H]1CCCNC1=O)NC(=O)[C@H](CC1CC1)NC(=O)c1cc2cccc(Cl)c2[nH]1` [pomotrelvir], for which the IC50 in the series on 229E-CoV was 0.818 to 1.03 µM.
In general, inhibition refers to how much of the control response was suppressed. Turning to `CCN(CC)Cc1cc(Nc2ccnc3cc(Cl)ccc23)ccc1O` [amodiaquine], in the series on SARS-COV-2 omicron JN.1, the half-maximal inhibitory concentration (IC50) lay within 12 to 12.1 µM and the inhibition at 36 µM is 80 to 95%.
For `CN(C)C(=O)COC(=O)Cc1ccc(OC(=O)c2ccc(NC(=N)N)cc2)cc1` [camostat mesylate], the “SARS-COV-2-driven entry and infection” value in the series with SARS-COV-2 is “significantly reduces”. Also, in the series with ACE2plusC3 cells, the cell toxicity result is recorded as “without causing cell toxicity”. In addition, the “inhibition of SARS-COV-2 infection” value in series [1] was “significantly inhibited”.
As for `CCN(CC)CCCC(C)Nc1ccnc2cc(Cl)ccc12` (stereo not drawn) [chloroquine], in the series on SARS-COV-2 omicron JN.1, the half-maximal inhibitory concentration (IC50) was in the range of 12 to 12.1 µM and the inhibition at 36 µM fell in the range of 80 to 95%.
Turning to `CCCCCCCCCC(=O)N[C@@H](CCCN=C(N)N)C(=O)N[C@H](C(=O)N[C@@H](CCCCN)C(=O)N[C@@H](CCCN=C(N)N)C(=O)CCl)C(C)C` [decanoyl-RVKR-CMK] (Decanoyl-RVKR-CH2Cl), the “inhibition of infection by plaque assay (viral titer)” value with SARS-COV-2 (WA1/2020) was “moderate inhibition of infection”. In addition, the “inhibition of infection by immunofluorescence” value in series [1] is given as “moderate inhibition of infection”.
Take `CC(C)(C)[C@H](NC(=O)C(F)(F)F)C(=O)N1C[C@H]2[C@@H]([C@H]1C(=O)N[C@H](C#N)C[C@@H]1CCNC1=O)C2(C)C` [nirmatrelvir, Nirmatrelvir]: the IC50 in the series with 229E-CoV lay within 0.818 to 1.03 µM. Further, in the series on MERS-COV, the CPE inhibition entry is “approximately 90%”. Moreover, in series [1], the “dose-dependent inhibition of infection” value was “dose-dependent inhibition of infection”, the “inhibition of SARS-COV-2 infection” value was “strong inhibition efficacy” and the inhibition of infection entry is “nearly completely inhibited”.
As for `CCCCN(CCCC)CCC(O)c1cc2c(Cl)cc(Cl)cc2c2cc(C(F)(F)F)ccc12` (stereo not drawn) [halofantrine], the “binding to main protease” value in series [2] is “effectively binds”. Besides, in the series with SARS-COV-2 omicron JN.1, the IC50 was 4 µM and the inhibition at 36 µM was 80 to 95%.
On to `Cn1cnc(Cn2c(=O)[nH]/c(=N\c3cc4cn(C)nc4cc3Cl)n(Cc3cc(F)c(F)cc3F)c2=O)n1` [ensitrelvir], for which, in the series on 229E-CoV, the “inhibitory effect on infected cells” value is recorded as “no inhibitory effect”.
